Measurements published in patent US12605353B2, “PDIA4 inhibitors and use thereof for inhibiting β-cell pathogenesis and treating diabetes” (Academia Sinica, priority 2019, dated 2026).
Read-outs that look alike come from different tables or passages of the source.

Tests used:
[1] = test system: Min6 cells; experiment: Glucose-stimulated insulin secretion in Min6 cells (insulin ELISA); format: cell-based, mouse; details: for insulin secretion in β-cells, in words: Min6 β-cells
Method: (§1) (A) Effect of drug candidates on insulin secretion in β-cells. Min6 cells were incubated in serum-free oxygen-saturated Krebs-Ringer bicarbonate (KRB) buffer containing high glucose (16.7 mM), CCF642 and drug candidates for 30 min. The supernatants were collected for insulin ELISA assay. (B) Min6 cells were incubated with PBS, CCF642 and drug candidates, respectively, for 24 h. Following PBS washing, WST-1 was added into each well for additional 20 min incubation.
Min6 cells were grown in complete Dulbecco's modified Eagle medium (DMEM) medium containing 10% fetal bovine serum, 100 units/ml penicillin and 100 µg/ml streptomycin in a 5% CO2 incubator in the presence of 3.3 mM glucose unless indicated otherwise. Min6 cells were pre-incubated in serum-free oxygen-saturated Krebs-Ringer bicarbonate (KRB) buffer containing 3.3 mM glucose at 37° C. for 30 min. The cells (7.5×10^4) were then incubated with KRB buffer containing high glucose (16.7 mM) or low glucose (3.3 mM) for an additional 30 min. The supernatants were collected for insulin ELISA assay.

[2] = Cell viability test (WST-1) in Min6 cells; format: cell-based, mouse; details: mouse
Method: as §1
(§2) Min6 cells were cultured at 37° C. in complete medium. Cell cytotoxicity was determined using WST-1 (4-[3-(4-Iodophenyl)-2-(4-nitrophenyl)-2H-5-tetrazolio]-1,3-benzene Disulfonate) according to the manutkturet's guidelines. Briefly, the cells were grown in a […] containing complete medium in the presence of the indicated compounds for 24 h. Following PBS washing, WST-1 was added into each well for additional 20 min incubation. After removing the medium, the cells in the plate were measured with a SpectraMax i3x reader at 450 nm.

[3] = target: T1, PDIA4 (Homo sapiens, UniProt P13667); experiment: biochemical;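 note: enzymatic activity of PDIA4 read as absorbance at 595 nm, inhibition given as percent decrease relative to vehicle-treated control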
T1 sequence (P13667 21-645): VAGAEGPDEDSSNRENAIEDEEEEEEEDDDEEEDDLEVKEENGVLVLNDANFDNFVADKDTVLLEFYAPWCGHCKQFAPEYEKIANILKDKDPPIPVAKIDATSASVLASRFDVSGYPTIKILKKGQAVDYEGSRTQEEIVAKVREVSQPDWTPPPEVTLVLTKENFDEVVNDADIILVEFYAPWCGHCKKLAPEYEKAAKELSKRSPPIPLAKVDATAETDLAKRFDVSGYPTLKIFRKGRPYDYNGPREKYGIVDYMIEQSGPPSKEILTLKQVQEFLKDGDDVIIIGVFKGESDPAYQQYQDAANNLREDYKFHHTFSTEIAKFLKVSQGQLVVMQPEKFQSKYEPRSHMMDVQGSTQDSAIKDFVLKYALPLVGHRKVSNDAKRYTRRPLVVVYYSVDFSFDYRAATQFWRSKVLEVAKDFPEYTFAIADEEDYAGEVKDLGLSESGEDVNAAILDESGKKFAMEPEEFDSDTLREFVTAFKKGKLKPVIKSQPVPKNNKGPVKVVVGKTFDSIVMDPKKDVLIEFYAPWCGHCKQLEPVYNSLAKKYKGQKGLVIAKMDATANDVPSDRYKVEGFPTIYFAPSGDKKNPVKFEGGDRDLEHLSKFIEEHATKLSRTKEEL
Method: Recombinant PDI proteins PDIA4 (23 pM) was incubated with insulin (0.2 mM) and DTT (0.1 mM) in the presence of vehicle and compounds at the indicated doses for 30 min at 25° C. The mixture was, measured using a SpectraMax i3x reader at 595 nm based on the manufacturer's instructions (Molecular device, CA, USA). Inhibition of the enzymatic activity PDIA4 is calculated by the formula, 100%×(OD595 of vehicle−OD595 of CP)/(OD595 of vehicle) as published previously.

[4] = test system: Min6 cells; experiment: Cell viability test (WST-1) in Min6 cells; format: cell-based, mouse
Method: as §1, §2

[5] = test system: db/db mice; experiment: Anti-diabetes effect in db/db mice (blood glucose); format: in vivo, mouse; details: CPD 8 2.5 mg/kg, metformin 60 mg/kg; for fasting blood glucose (FBG) / postprandial blood glucose (PBG): sitagliptin 30 mg/kg
Method: (A-B) New-onset diabetes, Lepr^db/db mice, are grouped and treated with PBS vehicle (CTR), sitagliptin (STG, 30 Mg/kg), CPD8 (2.5 mg/kg), and a combination of CPD8 (2.5 mg/kg) and metformin […]) (CPD8+Met) for the indicated time. Fasting blood glucose (FBG (A)) and postprandial blood glucose (PBG (B)) of the mice were monitored. The value (n) is number of mice indicated in parentheses.
Moreover, we examined the in vivo anti-diabetes effect of CPD 8, one of drug candidates for Pdia4 inhibition, in db/db mice, a mouse model of type 2 diabetes. […] PBG in db/db mice (FIG. 4B).

[6] = Min6, a mouse β-cells, read-out: EC50 values, insulin-releasing action
[7] = Mus musculus, 0.5 h, Table 5, insulin secretion, Min6 cells, high glucose (16.7 mM), 30 min, read-out: EC50
[8] = Table 5, 24 h, WST-1, read-out: CC50

SMILES	EC50 [1, 6]	EC50 [1, 7]	IC50 [3]	insulin secretion in β-cells, in words [1]	SI (CC50/EC50) ([1]; Table 5, Min6 cells)	CC50 at 24 h [2, 8]	CC50 at 24 h ([2]; read-out: CC50 values)	CC50 [4, 8]	CC50 ([4]; read-out: CC50 values)	reversal of type 2 diabetes [5]	fasting blood glucose (FBG) [5]	postprandial blood glucose (PBG) [5]
COc1ccc(N2C(=O)/C(=C\c3ccc([N+](=O)[O-])s3)SC2=S)cc1 [CCF642, reference compound]	0.25 µM	–	–	could augment insulin secretion	95.6	–	–	23.9 µM	23.9 µM	–	–	–
CC#CC#CC#CC#CCCC(CO)O[C@@H]1O[C@H](CO)[C@@H](O)[C@H](O)[C@H]1O (stereo partly shown) [CPD P1, cytopiloyne, reference compound]	1.55 µM	1.55 µM	210 µM	could augment insulin secretion	>64.5	> 100 µM	> 100 µM	–	–	–	–	–
N[C@@H](CC(=O)N1CCn2c(nnc2C(F)(F)F)C1)Cc1cc(F)c(F)cc1F [sitagliptin, reference compound]	–	–	–	–	–	–	–	–	–	–	significantly reduced	significantly reduced

The remaining compounds from weak to strong by EC50 [1, 6], led by results:

EC50 [1, 6]	EC50 [1, 7]	IC50 [3]	SMILES	insulin secretion in β-cells, in words [1]	SI (CC50/EC50) ([1]; Table 5, Min6 cells)	CC50 at 24 h [2, 8]	CC50 at 24 h ([2]; read-out: CC50 values)	CC50 [4, 8]	CC50 ([4]; read-out: CC50 values)	reversal of type 2 diabetes [5]	fasting blood glucose (FBG) [5]	postprandial blood glucose (PBG) [5]
0.06 µM	0.06 µM	4 µM	C#CC(=O)Nc1cc(OC)c(OC)cc1C(=O)O [CPD 8, 4,5-dimethoxy-2-propiolamidobenzoic acid]	could augment insulin secretion	>1666.7	> 100 µM	> 100 µM	–	–	can reverse type 2 diabetes	significantly decreased	significantly decreased
0.005 µM	0.005 µM	0.3 µM	C#CC(=O)Nc1cc(OC)c(OCCCN(C(=O)C#C)C(=O)c2cnco2)cc1C(=O)OC [58v, methyl 4-methoxy-2-propiolamido-5-(3-(N-propioloyloxazole-5-carboxamido)propoxy)benzoate]	could augment insulin secretion	>20000	> 100 µM	> 100 µM	–	–	–	–	–
